Measured values reported in PubChem BioAssay (NCI).
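Assay format: 96-well plates, 48-hour exposure. Here, GI50 denotes the concentration required for 50% inhibition of growth. TGI marks complete inhibition of growth.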

Legend:
Assay in all cases: growth of human tumour cells (NCI), 48 h
LOX IMVI melanoma = tested on: LOX IMVI melanoma
HCT-15 colon = tested on: HCT-15 colon
NCI-H522 lung = tested on: NCI-H522 lung
NCI-H226 lung = tested on: NCI-H226 lung
SK-MEL-5 melanoma = tested on: SK-MEL-5 melanoma
SK-MEL-28 melanoma = tested on: SK-MEL-28 melanoma
HT29 colon = tested on: HT29 colon
HOP-92 NSCLC = tested on: HOP-92 NSCLC
COLO 205 colon = tested on: COLO 205 colon
ACHN renal = tested on: ACHN renal
786-0 renal = tested on: 786-0 renal
NCI/ADR-RES ovarian = tested on: NCI/ADR-RES ovarian

COC(=O)/N=[N+](\[O-])C(c1ccc(OC)cc1)C1CCCCC1 (stereo not drawn)
TGI (LOX IMVI melanoma): > 100 µM | TGI (HCT-15 colon): 23.5 µM | TGI (NCI-H522 lung): 5.1 µM | TGI (NCI-H226 lung): 26.9 µM | TGI (SK-MEL-5 melanoma): > 41.4 µM | TGI (SK-MEL-28 melanoma): 38.7 µM | TGI (HT29 colon): 5.62 µM | TGI (HOP-92 NSCLC): 36.8 µM | TGI (COLO 205 colon): 3.36 µM | TGI (ACHN renal): 16.3 µM | TGI (786-0 renal): 32.4 µM | TGI (NCI/ADR-RES ovarian): 15.8 µM

CSC1=C(c2ccc(Cl)cc2)SC(N2CCCCC2)N1c1ccc([N+](=O)[O-])cc1 (stereo not drawn)
TGI (LOX IMVI melanoma): > 100 µM | TGI (HCT-15 colon): 89 µM | TGI (NCI-H522 lung): 63.3 µM | TGI (NCI-H226 lung): > 100 µM | TGI (SK-MEL-5 melanoma): 29.9 µM | TGI (SK-MEL-28 melanoma): > 100 µM | TGI (HT29 colon): > 100 µM | TGI (HOP-92 NSCLC): 72.3 µM | TGI (COLO 205 colon): 81.3 µM | TGI (ACHN renal): > 100 µM | TGI (786-0 renal): > 100 µM | TGI (NCI/ADR-RES ovarian): 62.3 µM

O=C(CC(C(=O)c1ccoc1)c1ccco1)c1ccco1 (stereo not drawn)
TGI (LOX IMVI melanoma): > 100 µM | TGI (HCT-15 colon): > 100 µM | TGI (NCI-H522 lung): > 100 µM | TGI (NCI-H226 lung): > 100 µM | TGI (SK-MEL-5 melanoma): > 100 µM | TGI (SK-MEL-28 melanoma): > 100 µM | TGI (HT29 colon): > 100 µM | TGI (HOP-92 NSCLC): > 100 µM | TGI (COLO 205 colon): > 100 µM | TGI (ACHN renal): > 100 µM | TGI (786-0 renal): > 100 µM | TGI (NCI/ADR-RES ovarian): > 100 µM

Cc1cccc2c1NC(=S)[C@@H]1CCCN1C2=O
TGI (LOX IMVI melanoma): > 100 µM | TGI (HCT-15 colon): > 100 µM | TGI (NCI-H522 lung): > 100 µM | TGI (NCI-H226 lung): > 100 µM | TGI (SK-MEL-5 melanoma): > 100 µM | TGI (SK-MEL-28 melanoma): > 100 µM | TGI (HT29 colon): > 100 µM | TGI (HOP-92 NSCLC): > 100 µM | TGI (COLO 205 colon): > 100 µM | TGI (ACHN renal): > 100 µM | TGI (786-0 renal): > 100 µM | TGI (NCI/ADR-RES ovarian): > 100 µM

CC(=O)Nc1ccc2[nH]c(-c3cccc(F)c3)cc(=O)c2c1
TGI (HCT-15 colon): > 100 µM | TGI (NCI-H522 lung): 20.2 µM | TGI (NCI-H226 lung): > 75.9 µM | TGI (SK-MEL-5 melanoma): 27.8 µM | TGI (SK-MEL-28 melanoma): > 100 µM | TGI (HT29 colon): > 100 µM | TGI (HOP-92 NSCLC): > 55.1 µM | TGI (COLO 205 colon): > 65.5 µM | TGI (ACHN renal): > 100 µM | TGI (786-0 renal): > 100 µM | TGI (NCI/ADR-RES ovarian): 21.2 µM

CCC1C(c2cc(OC)c(OC)c(OC)c2)c2cc3c(cc2OC1N1CCOCC1)OCO3 (stereo not drawn)
TGI (LOX IMVI melanoma): 10.5 µM | TGI (HCT-15 colon): > 100 µM | TGI (NCI-H522 lung): 21.8 µM | TGI (NCI-H226 lung): 27.6 µM | TGI (SK-MEL-5 melanoma): 6.38 µM | TGI (HT29 colon): 7.36 µM | TGI (HOP-92 NSCLC): 41 µM | TGI (COLO 205 colon): 22.4 µM | TGI (ACHN renal): 16.1 µM | TGI (786-0 renal): 28.8 µM | TGI (NCI/ADR-RES ovarian): > 100 µM

C[Si](C)(OCCS(=O)(=O)O)C1S(=O)(=O)OCCOS1(=O)=O
TGI (LOX IMVI melanoma): > 100 µM | TGI (HCT-15 colon): > 100 µM | TGI (NCI-H522 lung): > 100 µM | TGI (NCI-H226 lung): > 100 µM | TGI (SK-MEL-5 melanoma): > 100 µM | TGI (SK-MEL-28 melanoma): > 100 µM | TGI (HT29 colon): > 100 µM | TGI (HOP-92 NSCLC): > 100 µM | TGI (COLO 205 colon): > 100 µM | TGI (ACHN renal): > 100 µM | TGI (786-0 renal): > 100 µM | TGI (NCI/ADR-RES ovarian): > 100 µM

COc1cccc(NC(=O)CC(=O)N2N=C(C)C(N=Nc3ccc(S(=O)(=O)c4ccc(N=NC5C(=O)N(C(=O)CC(=O)Nc6cccc(OC)c6)N=C5C)cc4)cc3)C2=O)c1 (stereo not drawn)
TGI (LOX IMVI melanoma): > 100 µM | TGI (HCT-15 colon): > 100 µM | TGI (NCI-H522 lung): > 100 µM | TGI (NCI-H226 lung): > 100 µM | TGI (SK-MEL-5 melanoma): > 100 µM | TGI (SK-MEL-28 melanoma): > 100 µM | TGI (HT29 colon): > 100 µM | TGI (HOP-92 NSCLC): > 100 µM | TGI (COLO 205 colon): > 100 µM | TGI (ACHN renal): > 100 µM | TGI (786-0 renal): > 100 µM | TGI (NCI/ADR-RES ovarian): > 100 µM

N#Cc1ccc(OCc2nc3cc(C(F)(F)F)ccc3nc2-c2ccccc2)cc1
TGI (LOX IMVI melanoma): > 100 µM | TGI (NCI-H522 lung): > 100 µM | TGI (SK-MEL-5 melanoma): > 100 µM | TGI (SK-MEL-28 melanoma): > 100 µM | TGI (HT29 colon): > 100 µM | TGI (HOP-92 NSCLC): > 100 µM | TGI (COLO 205 colon): > 100 µM | TGI (ACHN renal): > 100 µM | TGI (786-0 renal): > 100 µM | TGI (NCI/ADR-RES ovarian): > 100 µM

CSc1ccc(/C=C2\N=C(c3ccccc3)N(c3nc4ccc(Sc5ccccc5)cc4[nH]3)C2=O)cc1
TGI (LOX IMVI melanoma): 41.6 µM | TGI (HCT-15 colon): > 86.2 µM | TGI (NCI-H522 lung): 39.9 µM | GI50 (NCI-H226 lung): 20.6 µM | TGI (NCI-H226 lung): > 83.1 µM | TGI (SK-MEL-5 melanoma): 27.3 µM | TGI (SK-MEL-28 melanoma): 51.8 µM | TGI (HT29 colon): 50.4 µM | TGI (HOP-92 NSCLC): 34 µM | TGI (COLO 205 colon): 30.9 µM | TGI (ACHN renal): > 100 µM | TGI (786-0 renal): 50.8 µM | TGI (NCI/ADR-RES ovarian): 72.3 µM

CN(CCc1ccc(N)cc1)[C@H]1CCCC[C@H]1N1CCCC1
TGI (LOX IMVI melanoma): > 100 µM | TGI (HCT-15 colon): > 100 µM | TGI (NCI-H522 lung): > 100 µM | TGI (NCI-H226 lung): > 100 µM | TGI (SK-MEL-5 melanoma): > 100 µM | TGI (SK-MEL-28 melanoma): > 100 µM | TGI (HT29 colon): > 100 µM | TGI (HOP-92 NSCLC): > 100 µM | TGI (COLO 205 colon): > 100 µM | TGI (ACHN renal): > 100 µM | TGI (786-0 renal): > 100 µM | TGI (NCI/ADR-RES ovarian): > 100 µM

O=C(N/N=C\c1ccc2ccccc2c1)Nc1ccc([N+](=O)[O-])cc1
TGI (LOX IMVI melanoma): > 100 µM | TGI (HCT-15 colon): > 72.6 µM | TGI (NCI-H522 lung): > 66.8 µM | TGI (NCI-H226 lung): > 100 µM | TGI (SK-MEL-5 melanoma): > 70.4 µM | TGI (SK-MEL-28 melanoma): > 84.8 µM | TGI (HT29 colon): > 75.6 µM | TGI (HOP-92 NSCLC): 38.5 µM | TGI (COLO 205 colon): > 60 µM | TGI (ACHN renal): > 63.8 µM | TGI (786-0 renal): > 62.8 µM | TGI (NCI/ADR-RES ovarian): > 70.1 µM

C1=C\CCCCN2C[C@H]3CCCC/C=C\CCCCN4CC[C@@H]([C@H](CCCCCC/1)C4)[C@H](C3)C2
TGI (LOX IMVI melanoma): 3.22 µM | TGI (HCT-15 colon): 3.27 µM | TGI (NCI-H522 lung): 3.33 µM | TGI (NCI-H226 lung): 37 µM | TGI (SK-MEL-5 melanoma): 3.12 µM | TGI (SK-MEL-28 melanoma): 3.89 µM | TGI (HT29 colon): 5.1 µM | TGI (HOP-92 NSCLC): > 20.2 µM | TGI (COLO 205 colon): 4.03 µM | TGI (ACHN renal): 4.06 µM | TGI (786-0 renal): 3.16 µM | TGI (NCI/ADR-RES ovarian): 9.89 µM
